Experimental data: patent US20230321106A1, “USE OF TOPICAL BRAF INHIBITOR COMPOSITIONS FOR TREATMENT OF EPIDERMAL GROWTH FACTOR RECEPTOR DOWNSTREAM EFFECTORS - INDUCED CUTANEOUS REACTIONS” (Lutris Pharma Ltd., priority 2020, published 2023)
“Also recorded” adds a separate entry of the source.

Experiments:
[1] = Phase 1 clinical trial of topical LUT014 gel: safety and tolerability; assay type: in vivo, human
Excerpt: This was an open-label, dose escalation study of LUT014 gel topically administered for four weeks. A 2-week screening period (day −14 to day −1) was followed by a 4-week treatment period (day 0 to day 27). Patients applied the study drug once daily to their face, neck, chest, and upper back. The post-treatment safety follow-up period ran from day 28 to day 55. Additionally, two long term safety follow up visits were done 3 and 6 months after completion of treatment, including a dermatological exam to detect any potential BRAF inhibitor skin toxicities within the treatment area.
Three dose levels of LUT014 gel were tested: 0.3 mg/g, 1.0 mg/g and 2.5 mg/g. The dose of LUT014 was escalated in sequential dose cohorts of 3 to 6 patients, in a conventional 3+3 escalating dose design. Escalation to the next dose level was permitted if no DLT was reported by the three patients in the cohort within 4 weeks of receiving the first dose of LUT014. If one out of three patients developed a dose limiting toxicity (DLT), additional three patients were planned to be treated with study drug at the same dose level. At any given dose level, if more than one out of the three or six patients experienced a DLT within 4 weeks of receiving the first dose of LUT014, the dose level was determined to have exceeded the MTD, and the MTD was set to be the next lower dose.
A DLT was defined as any treatment-emergent grade 2 or higher clinically significant adverse event, with the exception of a transient grade 2 adverse event (i.e., one that returns to grade 1 or baseline within 7 days) or grade 2 adverse event that was manageable with standard of care (i.e., one that returns to grade 1 or baseline within 14 days), that occurred within 4 weeks of the first dose of study drug for which there was a reasonable possibility that LUT014 had caused the event. Upon completion of the 4-week treatment period of the third patient in each dosing cohort, a Safety Review Committee (SRC) meeting was set to review the safety data and to provide recommendation/decision on dose escalation/de-escalation, or expansion of dosing cohort.
Safety and tolerability were assessed primarily based on the adverse events from day 0 to day 55. In addition to the adverse events assessment, the safety measurements included physical examination, vital signs and body weight, 12-lead ECG, ECOG performance status, safety labs including complete blood count, comprehensive metabolic panel and urinalysis. At 3 and 6 months […] a dermatologist performed a skin assessment of the areas of the skin where LUT014 gel was applied to screen for potential cutaneous toxicities known to be associated with approved BRAF inhibitors, including erythema nodosum-type rash, photosensitivity, squamous papillomas or warts, keratoacanthomas, cutaneous squamous cell carcinoma, dry skin, and folliculitis or cysts (Welsh, et al., Therapeutic advances in medical oncology 7, 122-136, 2015).

[2] = test system: anti-EGFR therapy-induced acneiform lesions; test: Phase 1 clinical trial: efficacy on acneiform lesions (CTCAE, MASCC, FACT-EGFRI-13); assay type: in vivo, human
Procedure: Three scales were used to evaluate the severity of acneiform lesions during the clinical trial period. The primary readout was based on the National Cancer Institute (NCI) Common Terminology Criteria for Adverse Events (CTCAE) version 5.0 for grading acneiform rash. The clinical trial eligibility criteria were based on having an acneiform skin rash of grade 1 or 2 while on anti-EGFR therapy, and therefore the grading change from baseline with the topical application of LUT014 was measured. The Multinational Association of Supportive Care in Cancer (MASCC) Study Group EGFR Inhibitor-dermatologic adverse event grading scale is a central reviewer-assessment based on the review of pictures provided to one remote reviewer (Wong, et al., Support Care Cancer 21, 2933-2948, 2013). The Functional Assessment of Cancer Therapy (FACT) is a health-related quality of life questionnaire to assess symptoms associated with EGFR inhibitors (Wagner, et al., Support Care Cancer 21, 1033-1041, 2013). The score based on the 13 skin-specific questions (FACT-EGFRI-13) was reported, and was calculated by the change in total score relative to baseline, with a decrease in value representing worsening and an increase value representing improvement of skin-related symptoms.
Evaluation of the preliminary efficacy of LUT014 gel for the treatment of anti-EGFR therapy-induced acneiform lesions was based on the following: A) Acneiform lesions grading performed locally by the Investigator using the NCI CTCAE version 5.0 skin and subcutaneous tissue disorders grading scale. B) Acneiform lesions grading performed by a central reader, using the MASCC Study Group EGFR Inhibitor-dermatologic adverse event grading scale (Wong, et al., 2013). Grading was based on masked photographs of patients' face, neck, and upper portion of the anterior and posterior chest. C) Patient self-reported quality of life FACT-EGFRI-13 questionnaire (Wagner et al, 2013), assessing the physical and psychological effects of the dermatological symptoms associated with anti-EGFR treatment on study patients. Only the first 13 questions of the FACT-EGFRI that are relevant for the skin were evaluated. Data from all patients who received at least one dose of study drug were included in the safety and efficacy analyses.

MIA-PaCa-2 cells = test: MIA-PaCa-2 cellular proliferation (ATP-lite, 72 hours); assay type: cell-based, human
Procedure: MIA-PaCa-2 cells (ATCC catalog number CRM-CRL-1420, Manassas, VA) were cultured at 37° C. in T75 flasks in growth medium DMEM (ATCC) supplemented with 10% FBS and 2.5% horse serum. After 4 days, when the flasks reached 50% confluence, cells were harvested with trypsin and seeded in 96 well plates at a concentration of 5000 cells/well, in a total volume of 0.1 ml/well starvation medium and incubated 24 hours at 37° C., 5% CO2. The next morning, medium was replaced with 180 μl growth medium (containing 10% FBS and 2.5% horse serum) and 20 μl of each concentration of LUT014, DMSO or PBS. Each concentration of each compound was added to triplicate wells. The plates were incubated for 72 hours at 37° C., 5% CO2. Cellular proliferation was measured using the ATP-lite proliferation assay (Perkin Elmer, Waltham, MA) following the manufacturer's instructions, with the luminescence measured using a CLARIOstar reader (BMG Labtech, Ortenberg, Germany), and analyzed with the ATPlite TOP program (Perkin Elmer).

[3] = test system: phosphorylated ERK1/2 (MAPK pathway) in HKGS-activated HEKa cells; test: Reversal of EGFR inhibitor-mediated pERK inhibition in HKGS-activated HEKa cells, Western blot; assay type: cell-based, human; conditions: two hours
Procedure: Primary HEKa, isolated from adult skin of a single donor and cryopreserved at the end of primary culture (Gibco catalog number C0055C, Thermo Fisher Scientific, Waltham, MA), were cultured in T25 flasks at 37° C., 5% CO2 in growth medium (Epilife™ CF Kit, Gibco) supplemented with 60 μM calcium (Gibco) and HKGS (Gibco). After at least three passages, cells were harvested with trypsin when flask reached 70-80% confluence, and seeded in 10 cm culture dishes (250,000 cells/dish) in 9 ml of growth medium overnight. To analyze the effect of HKGS or a BRAF inhibitor on pERK, cells were starved for 2.5 hours in 5 mL of starvation medium without HKGS, and then individual plates were incubated for two hours with DMSO 0.1%, HKGS, vemurafenib 0.3 μM (0.146 μg/mL), or LUT014 0.3 μM (0.158 μg/mL). […] Cells were harvested with 1 ml cold PBS containing EDTA-free, phosphatase inhibitor cocktail (MilliporeSigma, Burlington, MA) using a cell scraper. […] The signals of phosphorylated ERK1/2 and total ERK2 were quantified using ImageJ software and the phosphorylated ERK1/2/total ERK2 ratio was calculated. For the quantification, equal sized rectangles were drawn around the bands of the phosphorylated ERK1/2 and the total ERK2 and the pixels in each rectangle were measured.

[4] = test system: phosphorylated ERK1/2 (MAPK pathway) in primary adult human epidermal keratinocytes (HEKa); test: pERK induction in HEKa cells, Western blot (phosphorylated ERK1/2 / total ERK2); assay type: cell-based; conditions: 0.3 μM, two hours
Procedure: Primary HEKa, isolated from adult skin of a single donor and cryopreserved at the end of primary culture (Gibco catalog number C0055C, Thermo Fisher Scientific, Waltham, MA), were cultured in T25 flasks at 37° C., 5% CO2 in growth medium (Epilife™ CF Kit, Gibco) supplemented with 60 μM calcium (Gibco) and HKGS (Gibco). After at least three passages, cells were harvested with trypsin when flask reached 70-80% confluence, and seeded in 10 cm culture dishes (250,000 cells/dish) in 9 ml of growth medium overnight. To analyze the effect of HKGS or a BRAF inhibitor on pERK, cells were starved for 2.5 hours in 5 mL of starvation medium without HKGS, and then individual plates were incubated for two hours with DMSO 0.1%, HKGS, vemurafenib 0.3 μM (0.146 μg/mL), or LUT014 0.3 μM (0.158 μg/mL). To analyze the effects of LUT014 to re-activate pERK in HKGS-activated HEKa cells cultured in an EGFR inhibitor, cells were seeded in 60 mm dishes (120,000 cells/dish) in 4 ml growth medium. […] The signals of phosphorylated ERK1/2 and total ERK2 were quantified using ImageJ software and the phosphorylated ERK1/2/total ERK2 ratio was calculated. For the quantification, equal sized rectangles were drawn around the bands of the phosphorylated ERK1/2 and the total ERK2 and the pixels in each rectangle were measured.

[5] = Phase 1 clinical trial: plasma pharmacokinetics (LC-MS/MS); assay type: in vivo, human; conditions: patients, topical gel; for systemic absorption / exposure after topical administration: plasma
Procedure: Blood samples for PK analysis were taken from the initial three patients enrolled to each dosing cohort (total 9 patients). PK samples were collected pre-dose on day 0 and day 7 and at 1, 2, 4, 8 and 24 hours post-dose. A qualified liquid chromatography tandem mass spectroscopy LC-MS/MS analytical assay with an LLOQ of 10 pg/ml was used to determine concentrations of LUT014 in plasma. Plasma concentrations below the limit of quantitation (<10 pg/mL) were treated as zero for the calculations of mean (SD).
Tabular summaries of the secondary safety assessments included descriptive statistics (i.e., mean, standard deviation, median, and range for continuous data and frequency for categorical data) for each visit assessed, as well as for the calculated changes from baseline. For the pharmacokinetics analyses, plasma LUT014 concentration-time profiles were analyzed by non-compartmental methods and PK parameters were calculated by standard equations, when plasma levels are achieved. PK analyses produced using Phoenix® WinNonLin (Certara, Princeton, NJ). The efficacy assessments NCI CTCAE skin and subcutaneous tissue disorders grading scale, MASCC Study Group EGFR Inhibitor-dermatologic adverse event grading scale, FACT-EGFRI-13 questionnaire, were summarized by treatment group using descriptive statistics as appropriate (i.e., mean, standard deviation, median, and range for continuous data and frequency for categorical data). All analyses were performed using SAS® Software (version 9.2, SAS Institute, Cary, NC).

[6] = topical gel 0.3, 1.0, 2.5 mg/g once daily, 4 weeks, 10 patients

Cc1ccc2c(Nc3cccc(OC(F)(F)F)c3)nccc2c1Nc1ncccc1-c1ncnc2[nH]cnc12 [LUT014]
toxicities associated with oral systemic BRAF inhibitors (photosensitivity, maculo-papular rash, hyperkeratosis) ([1]; all cohorts): no local or systemic toxicities | patients with an adverse event considered related to the study drug ([1]; all cohorts, 10 patients, pruritus, dry skin, stinging sensation): Seven | Treatment-related adverse events: Dry skin, All Grades ([1]; human, in vivo, 4 weeks): 1 | Treatment-related adverse events: Dry skin, Grade 3 or 4 ([1]; human, in vivo, 4 weeks): 0 | Treatment-related adverse events: Local Pain, All Grades ([1]; human, in vivo, 4 weeks): 1 | Treatment-related adverse events: Local Pain, Grade 3 or 4 ([1]; human, in vivo, 4 weeks): 0 | Treatment-related adverse events: Pruritus, All Grades ([1]; human, in vivo, 4 weeks): 6 | Treatment-related adverse events: Pruritus, Grade 3 or 4 ([1]; human, in vivo, 4 weeks): 0 | severity grade of related adverse events ([1]; human, in vivo, 4 weeks): 1-2 | total adverse events of any attribution ([1]; human, in vivo, 4 weeks): 38 | dose-limiting toxicities [1, 6]: no dose-limiting toxicities; also recorded: no dose limiting toxicity | tolerability [1, 6]: well tolerated | time to CTCAE improvement ([2]; cohort 1, 0.3 mg/g): two of the patients showing improvement within the first week | FACT-EGFRI-13 skin-related symptom questionnaire change ([2]; cohort 1, 0.3 mg/g, 28-day treatment): the three patients had symptomatic improvement | benefit after administration had terminated ([2]; cohort 1, 0.3 mg/g, all three patients, day 55): sustained benefit by day 55 | acneiform rash CTCAE grade change ([2]; cohort 1, 0.3 mg/g, three patients with grade 2 at baseline, 28-day treatment): all improved to grade 1 | central reviewer MASCC grading change ([2]; cohort 1, 0.3 mg/g, treatment period): two patients improved and one patient did not change | acneiform skin rash, overall ([2]; cohort 2 (1.0 mg/g)): evidence of acneiform rash improvement | FACT-EGFRI-13 symptom questionnaire change ([2]; cohort 2, 1.0 mg/g, baseline grade 1 rash): two patients with baseline grade 1 rash reported stable skin-related symptoms | FACT-EGFRI-13 symptom questionnaire change ([2]; cohort 2, 1.0 mg/g, baseline grade 2 rash): two patients with baseline grade 2 rash improved symptoms | MASCC grading change ([2]; cohort 2, 1.0 mg/g, four patients): three patients improved grading during the treatment period while one worsened | acneiform rash CTCAE grade change ([2]; cohort 2, 1.0 mg/g, patients with grade 1 at baseline): two with grade 1 at baseline that did not change in grading | acneiform rash CTCAE grade change ([2]; cohort 2, 1.0 mg/g, patients with grade 2 at baseline, 28-day treatment): two with grade 2 at baseline that improved to grade 1 | FACT-EGFRI-13 symptom questionnaire change ([2]; cohort 3, 2.5 mg/g): one patient improved and two worsened | acneiform rash CTCAE grade change ([2]; cohort 3, 2.5 mg/g, three patients, 28-day treatment): one improved, another was stable and one patient had worsening acneiform skin rash | MASCC grading change ([2]; cohort 3, 2.5 mg/g, compared with the CTCAE course): The same course was evident | acneiform skin rash, overall ([2]; highest dose cohort (2.5 mg/g)): no consistent evidence of improvement | improvement of acneiform rash in grade 2 patients ([2]; low and intermediate cohorts (0.3 and 1.0 mg/g)): all grade 2 patients (six patients) | acneiform skin rash, overall by three assessment criteria ([2]; lowest dose cohort (0.3 mg/g)): improved in all patients | concentration of peak proliferation (MIA-PaCa-2 cells): 0.041 µM | proliferation at the highest concentrations (MIA-PaCa-2 cells): growth arrest | effect on pERK inhibition by EGFR inhibitors (erlotinib, cetuximab) ([3]; HKGS plus EGFR inhibitor plus LUT014 0.3 μM): abrogated the inhibitory effect of both EGFR inhibitors | increase in pERK, compared with HKGS [4]: higher | plasma concentrations lower than effective systemic concentrations of other BRAF inhibitors [5]: 3 to 4 orders of magnitude | plasma concentrations ([5]; day 0 and day 7): in the pg/mL range | systemic absorption / exposure after topical administration ([5]; day 0 and day 7): negligible absorption and minimal systemic exposure | systemic absorption / exposure after topical administration ([5]; day 0 and day 7, listed as compound of formula IV): negligible to minimal systemic absorption

C#Cc1cccc(Nc2ncnc3cc(OCCOC)c(OCCOC)cc23)c1 [erlotinib, reference compound]
HKGS stimulation of the MAPK pathway (pERK) ([3]; HKGS plus erlotinib 10 μM): partially inhibited
